A word on the IC50: it is the midpoint of a concentration-inhibition curve.

Test [1] addresses γ-secretase (Homo sapiens (Human), UniProt P49768+Q92542). Nature of the test: Photoaffinity labeling of γ-secretase in HeLa membrane by Aβ17-23BPA20-biotin. The class given is binding. The conditions noted are these: inhibitor at 2 μM. As for the experimental part:
FIG. 4. […] Various concentrations of inhibitor were incubated with APP substrate (S4) or Notch peptide substrate containing the C-terminal biotinylated transmembrane domain of Notch1 and HeLa cell membrane in the presence of 0.25% CHAPSO. Aβ40 was detected by G2-10 antibody. The cleaved Notch product was detected by Val1744 antibody that specifically recognizes the cleaved product between Gly1743 and Val1744. Activities are expressed as percentage relative to reading that was produced in DMSO control. […] Various concentrations of S4 substrate were incubated with HeLa membrane in fixed concentrations of inhibitor as indicated. The double reciprocal velocity (1/v) and substrate concentrations (1/S) are plotted to determine the type of inhibition. […] Assays were conducted as described in FIG. 4A. […] The labeled samples were solubilized with RIPA buffer. Biotinylated proteins were captured with streptavidin-agarose and probed by immunoblotting using antibodies against biotin, PS1-CTF, PS1-NTF, Nicastrin, PEN-2 and APH-1a. HeLa cell membrane proteins were directly loaded onto lanes indicated by an arrow in the PEN-2 and APH-1a blots as positive controls. […] Upper panel: PS1-NTF; Lower panel: PS1-CTF.
The labeled proteins were eluted with 2×SDS sample buffer and analyzed with Western blotting using antibodies against the components of γ-secretase complex. Protein concentration was determined with the Dc protein assay kit (Bio-Rad)
After the photolyzed membranes were solubilized, biotinylated proteins were captured, eluted and analyzed by western blotting with antibodies against biotin, PS1, nicastrin, PEN-2 and APH-1.

In test [2] the target is T1, γ-secretase (Homo sapiens (Human), UniProt P49768). In words: Extended exo-cell γ-secretase assay, HeLa cells. The class given is cell-based. As for the experimental part:
The potency of two structurally different GSIs was assayed in four unique γ-secretase activity assays. IC50 values were determined from the dose response curves using a non-linear regression analysis in the Prism software. An in vitro assay was based on the one previously reported by Li et al. (2000), except we utilized Sb4 substrate that eliminated the need for biotinylated antibody. The cell-based activity assay used N2A mouse neuroblastoma cells stably over-expressing APP and a biotinylated 4G8 antibody that binds the C-terminus of the amyloid beta peptide. The exo-cell assay incubated HeLa cells simultaneously with GSI, Sb4 substrate as well as 0.25% CHAPSO detergent prior to detecting substrate cleavage. Finally, the extended exo-cell assay first incubated HeLa cells with GSI for 24 hrs. Subsequently, the cells were washed 1× in PBS and then incubated with Sb4 substrate and CHAPSO detergent. The assay was then carried out exactly as described for the original exo-cell method. All assays incorporate ruthenylated G2-10* antibody to detect 40-site cleavage of APP or recombinant Sb4 substrate and quantitated activity by measuring ECL. The latter assays were performed as previously described (Li et al., 2000). In the in vitro assay, recombinant Sb4 substrate was incubated for 2.5 hours at 37° C. in pH 7.0 PIPES buffer in the presence of 0.25% CHAPSO detergent and solubilized γ-secretase at a final concentration of 40 ng/ul. The detection of cleaved substrate was determined using ruthenylated G2-10* antibody. Since the Sb4 substrate is biotinylated additional 6E10 biotinylated antibody used in earlier assays is not required. […]
The exo-cell assay was adapted to monitor real-time γ-secretase activity and inhibition over extended times of pretreatment regimens. […] This modified, extended treatment exo-cell assay is capable of quantifying remaining γ-secretase activity following drug treatment on virtually any cell type. The IC50 values for Compound E and GSI-34 were calculated using the extended exo-cell assay (Table 3 and FIG. 15d). […]

Test [3] deals with A20 mouse lymphoma cells. Nature of the test: Lymphoma cell proliferation assay, [3H]thymidine incorporation. In kind it is cell-based. The conditions noted are these: 48 hours. The protocol:
For a lymphoma cell proliferation assay, A20 mouse lymphoma cells were seeded in a 96-well plate at a concentration of 5×10^5 cells/ml in 100 μl RPMI media containing 2% fetal bovine serum. An additional 100 μl of media containing DMSO or γ-secretase inhibitor was added and incubated for 48 hours at 37° C. After this incubation, the cells were incubated for 5 hours with 2 μCi/ml [^3H]thymidine at 37° C. Proliferative response was then evaluated by harvesting the tritiated DNA from cells using a Skatron cell harvester and proliferation assessed as a function of [^3H]thymidine incorporation measured on a β-counter.
(In general: Dividing cells build labelled thymidine or BrdU into new DNA.)

Test [4] addresses T1, γ-secretase. Nature of the test: Exo-cell γ-secretase assay, HeLa cells, Sb4 substrate. The class given is cell-based. As for the experimental part:
Therefore, HeLa cells were first incubated with Sb4 substrate, as well as CHAPSO detergent as depicted in FIG. 14c. Cells were seeded at their indicated concentration in 96-well plates and allowed to attach overnight. The next day, media was removed and cells were washed once with PBS. Fresh media was then added containing 0.25% CHAPSO detergent, Sb4 substrate to a final concentration of 1 μM, and 1% DMSO or γ-secretase inhibitor. This was incubated for 2.5 hours at 37° C. Media was removed and cell debris was pelleted from this media for 5 min. at 3,500 rpm. Supernatant was then added to ruthenylated G2-10* antibody that recognizes cleaved product, but not uncleaved substrate. This was incubated for an additional 2 hours at room temperature. Finally, magnetic streptavidin beads were added to a final concentration of 80 μg/ml and incubated for 30 min. at room temperature. Assay buffer was added to the samples and γ-secretase-mediated cleavage of substrate was monitored using electrochemiluminescence (ECL) (Li et al., 2000). (FIG. 14c).
The potency of two structurally different GSIs was assayed in four unique γ-secretase activity assays. IC50 values were determined from the dose response curves using a non-linear regression analysis in the Prism software. An in vitro assay was based on the one previously reported by Li et al. (2000), except we utilized Sb4 substrate that eliminated the need for biotinylated antibody. The cell-based activity assay used N2A mouse neuroblastoma cells stably over-expressing APP and a biotinylated 4G8 antibody that binds the C-terminus of the amyloid beta peptide. The exo-cell assay incubated HeLa cells simultaneously with GSI, Sb4 substrate as well as 0.25% CHAPSO detergent prior to detecting substrate cleavage. Finally, the extended exo-cell assay first incubated HeLa cells with GSI for 24 hrs. Subsequently, the cells were washed 1× in PBS and then incubated with Sb4 substrate and CHAPSO detergent. The assay was then carried out exactly as described for the original exo-cell method. All assays incorporate ruthenylated G2-10* antibody to detect 40-site cleavage of APP or recombinant Sb4 substrate and quantitated activity by measuring ECL. The latter assays were performed as previously described (Li et al., 2000). In the in vitro assay, recombinant Sb4 substrate was incubated for 2.5 hours at 37° C. in pH 7.0 PIPES buffer in the presence of 0.25% CHAPSO detergent and solubilized γ-secretase at a final concentration of 40 ng/ul. The detection of cleaved substrate was determined using ruthenylated G2-10* antibody. Since the Sb4 substrate is biotinylated additional 6E10 biotinylated antibody used in earlier assays is not required. In the cell-based assay, N2A mouse neuroblastoma cells that stably overexpress amyloid precursor protein were incubated with γ-secretase inhibitors in a final concentration of 1% DMSO for 24 hrs. Following incubation, the supernatant was removed from the cells and assayed for Aβ40, the cleaved APP product, using ruthenylated G2-10* antibody as well as biotinylated 4G8 antibody.

As for `CC(NC(=O)Cc1cc(F)cc(F)c1)C(=O)NC1N=C(c2ccccc2)c2ccccc2N(C)C1=O` (stereo not shown) [Compound E], the “block of photo-crosslinking of PS1-CTF and PS1-NTF by Aβ17-23BPA20-biotin” value in test [1] is listed as “completely blocked”. For the same molecule, the half-inhibitory concentration (IC50) was 2.8 nM in test [2] (24 hrs pretreatment, read-out: Extended Exo-Cell (nM), IC50); 2.83 nM in test [2] (Extended Exo-Cell (nM), IC50, 24 hrs pretreatment); 3.8 nM in test [4] (ECL detection, read-out: Exo-Cell (nM), IC50); 5.4 nM in test [4] (IC50, exo-cell assay, HTRF detection); 3.8 nM in test [4] (read-out: Exo-Cell (nM), IC50, ECL detection). The “inhibition of cellular proliferation” value in test [3] is “able to inhibit cellular proliferation”.

These data come from US9023767B2, “γ-Secretase substrates and methods of use” (Memorial Sloan-Kettering Cancer Center, priority 2009, dated 2015).
